US9718828B2 (MERCK SHARP & DOHME CORP., priority 2011, dated 2017)
Where a name gives a salt, the structure may show the parent alone. Read-outs that look alike come from different tables or passages of the source.

Target: Btk enzyme (His-Btk) (Homo sapiens (Human), UniProt Q06187)
Assay: Btk enzyme activity, IMAP fluorescence polarization assay (Assay Method A)
[1] = read-out: EC50 Btk activity values - Assay Method A, IMAP-FP, 60 min pre-incubation, 5 μM ATP, class 100-1000 is given as ≧100 nM-<1 μM

Btk enzyme (His-Btk), sequence (Q06187 whole entry): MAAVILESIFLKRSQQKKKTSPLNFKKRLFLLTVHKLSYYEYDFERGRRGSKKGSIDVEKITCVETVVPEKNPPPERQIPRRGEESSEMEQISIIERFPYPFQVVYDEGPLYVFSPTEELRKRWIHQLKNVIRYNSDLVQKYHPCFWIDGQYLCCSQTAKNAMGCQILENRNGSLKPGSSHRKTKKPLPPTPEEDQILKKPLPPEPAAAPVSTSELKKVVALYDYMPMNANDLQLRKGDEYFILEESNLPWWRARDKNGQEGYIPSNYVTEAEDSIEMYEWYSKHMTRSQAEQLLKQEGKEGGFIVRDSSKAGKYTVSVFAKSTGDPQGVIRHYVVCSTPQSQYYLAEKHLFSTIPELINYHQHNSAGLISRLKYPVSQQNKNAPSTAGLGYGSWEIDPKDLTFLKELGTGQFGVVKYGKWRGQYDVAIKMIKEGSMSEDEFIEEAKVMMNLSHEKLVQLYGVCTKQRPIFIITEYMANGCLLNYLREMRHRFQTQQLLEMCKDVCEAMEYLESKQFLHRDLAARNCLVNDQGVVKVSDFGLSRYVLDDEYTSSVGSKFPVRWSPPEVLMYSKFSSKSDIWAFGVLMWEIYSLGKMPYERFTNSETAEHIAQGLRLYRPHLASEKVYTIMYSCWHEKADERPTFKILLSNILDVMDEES

Row | SMILES | EC50 [1] | EC50
1 | Nc1ncnc2c1c(-c1ccc(C(=O)Nc3cc(C(F)(F)F)ccn3)cc1)nn2[C@@H]1CCCN(C(=O)C2CC(F)(F)C2)C1 [Example 278, (R)-4-(4-amino-1-(1-(3,3-difluorocyclobutanecarbonyl)piperidin-3-yl)-1H-pyrazolo[3,4-d]pyrimidin-3-yl)-N-(4-(trifluoromethyl)pyridin-2-yl)benzamide] | < 10 nM | –
2 | COCCC(=O)N1C[C@H](c2nc(-c3ccc(C(=O)Nc4cc(C5CC5)ccn4)cc3)c3c(N)nccn23)CC[C@@H]1C (relative stereo) [Example 183, 4-(8-amino-3-((cis)-1-(3-methoxypropanoyl)-6-methylpiperidin-3-yl)imidazo[1,5-a]pyrazin-1-yl)-N-(4-cyclopropylpyridin-2-yl)benzamide, TFA salt] | < 10 nM | –
3 | CCOC(=O)C1CC1CN1CCC[C@@H](c2nc(-c3ccc(C(=O)Nc4ccccn4)cc3)c3c(N)nccn23)C1 (stereo partly drawn) [Example 137, ethyl 2-(((R)-3-(8-amino-1-(4-(pyridin-2-ylcarbamoyl)phenyl)imidazo [1,5-a]pyrazin-3-yl)piperidin-1-yl)methyl) cyclopropanecarboxylate, TFA salt] | – | 100 to 1000 nM
4 | CCOC(=O)N1C[C@H](c2nc(-c3ccc(C(=O)Nc4cc(C(F)(F)F)ccn4)cc3)c3c(N)nccn23)CC[C@H]1C (relative stereo) [Example 182, (trans)-ethyl 5-(8-amino-1-(4-(4-(trifluoromethyl)pyridin-2-ylcarbamoyl)phenyl)imidazo [1,5-a]pyrazin-3-yl)-2-methylpiperidine-1-carboxylate, TFA salt] | – | < 10 nM
5 | NCCOCCOCCOCCOCCC(=O)N1CCC[C@@H](c2nc(-c3ccc(C(=O)Nc4cc(C(F)(F)F)ccn4)cc3)c3c(N)nccn23)C1 [Example 85, (R)-4-(8-amino-3-(1-(1-amino-3,6,9,12-tetraoxapentadecane)piperidin-3-yl)imidazo[1,5-a]pyrazin-1-yl)-N-(4-(trifluoromethyl)pyridin-2-yl)benzamide] | – | < 10 nM
6 | Nc1nccn2c([C@@H]3CCCN(C(=O)C4CC(F)(F)C4)C3)nc(-c3ccc(C(=O)Nc4cc(C(F)(F)F)ccn4)cc3)c12 [Example 83, (R)-4-(8-amino-3-(1-(3,3-difluorocyclobutanecarbonyl)piperidin-3-yl)imidazo[1,5-a]pyrazin-1-yl)-N-(4-(trifluoromethyl)pyridin-2-yl)benzamide] | – | < 10 nM
7 | CC(C)(C#N)C(=O)N1CCC[C@@H](n2nc(-c3ccc(C(=O)Nc4cc(C(F)(F)F)ccn4)cc3)c3c(N)ncnc32)C1 [Example 263, (R)-4-(4-amino-1-(1-(2-cyano-2-methylpropanoyl)piperidin-3-yl)-1H-pyrazolo[3,4-d]pyrimidin-3-yl)-N-(4-(trifluoromethyl)pyridin-2-yl)benzamide] | – | 10 to 100 nM
8 | CC1(C(=O)N2CCC[C@@H](c3nc(-c4ccc(C(=O)Nc5cc(C(F)(F)F)ccn5)cc4)c4c(N)ncc(/C=C/c5ccccc5)n34)C2)COC1 [Example 309, (R,E)-4-(8-amino-3-(1-(3-methyloxetane-3-carbonyl)piperidin-3-yl)-5-styrylimidazo[1,5-a]pyrazin-1-yl)-N-(4-(trifluoromethyl)pyridin-2-yl)benzamide] | < 10 nM | –
9 | CC1(C)CC(c2nc(-c3ccc(C(=O)Nc4cc(C(F)(F)F)ccn4)cc3)c3c(N)nccn23)CCO1 (stereo not shown) [Example 34, 4-(8-amino-3-(2,2-dimethyltetrahydro-2H-pyran-4-yl)imidazo[1,5-a]pyrazin-1-yl)-N-(4-(trifluoromethyl)pyridin-2-yl)benzamide] | < 10 nM | –
10 | CCC(=O)N[C@@H]1CCC[C@@H](c2nc(-c3ccc(C(=O)Nc4cc(C(F)(F)F)ccn4)cc3)c3c(N)nccn23)C1 (relative stereo) [Example 170, 4-(8-amino-3-((trans)-3-propionamidocyclohexyl)imidazo [1,5-a]pyrazin-1-yl)-N-(4-(trifluoromethyl)pyridin-2-yl)benzamide] | < 10 nM | –
11 | Nc1nccn2c([C@@H]3CCCN(Cc4ccccc4)C3)nc(-c3ccc(C(=O)Nc4ccccn4)cc3)c12 [Example 133, (R)-4-(8-amino-3-(1-benzylpiperidin-3-yl)imidazo[1,5-a]pyrazin-1-yl)-N-(pyridin-2-yl)benzamide] | – | 100 to 1000 nM
12 | C=CC1(C(=O)N2CCC[C@@H](c3nc(-c4ccc(C(=O)Nc5cc(C(F)(F)F)ccn5)cc4)c4c(N)nccn34)C2)COC1 [Example 91, (R)-4-(8-amino-3-(1-(3-vinyloxetane-3-carbonyl)piperidin-3-yl)imidazo[1,5-a]pyrazin-1-yl)-N-(4-(trifluoromethyl)pyridin-2-yl)benzamide] | – | < 10 nM
13 | CC(C)NC(=O)C1CCCN(c2nc(-c3ccc(C(=O)Nc4cc(C(F)(F)F)ccn4)cc3)c3c(N)nccn23)C1 (stereo not shown) [Example 224, 1-(8-amino-1-(4-(4-(trifluoromethyl)pyridin-2-ylcarbamoyl)phenyl)imidazo[1,5-a]pyrazin-3-yl)-N-isopropylpiperidine-3-carboxamide] | < 10 nM | –
14 | CCCc1ccnc(NC(=O)c2ccc(-c3nc([C@H]4CC[C@H](O)CC4)n4ccnc(N)c34)c(C)c2)c1 [Example 10, 4-(8-amino-3-((trans)-4-hydroxycyclohexyl)imidazo[1,5-a]pyrazin)-3-methyl-N-(4-propylpyridin-2-yl)benzamide] | < 10 nM | –
15 | COCCNC(=O)C1CCCN(c2nc(-c3ccc(C(=O)Nc4cc(C(F)(F)F)ccn4)cc3)c3c(N)nccn23)C1 (stereo not shown) [Example 232, 1-(8-amino-1-(4-(4-(trifluoromethyl)pyridin-2-ylcarbamoyl)phenyl)imidazo[1,5-a]pyrazin-3-yl)-N-(2-methoxyethyl)piperidine-3-carboxamide, TFA salt] | < 10 nM | –
16 | CC1(C(=O)N2CC[C@@H](c3nc(-c4ccc(C(=O)Nc5ccccn5)cc4)c4c(N)nccn34)C2)COC1 [Example 126, (R)-4-(8-amino-3-(1-(3-methyloxetane-3-carbonyl)pyrrolidin-3-yl)imidazo[1,5-a]pyrazin-1-yl)-N-(pyridin-2-yl)benzamide, TFA salt] | – | 100 to 1000 nM
17 | CC1(C(=O)N2CCC[C@@H](c3nc(-c4ccc(C(=O)Nc5cnccn5)cc4)c4c(N)nccn34)C2)COC1 [Example 290, (R)-4-(8-amino-3-(1-(3-methyloxetane-3-carbonyl)piperidin-3-yl)imidazo[1,5-a]pyrazin-1-yl)-N-(pyrazin-2-yl)benzamide] | – | 10 to 100 nM
18 | CCNC(=O)N1CCC[C@@H](c2nc(-c3ccc(C(=O)Nc4cc(C#N)ccn4)cc3)c3c(N)nccn23)C1 [Example 101, (R)-3-(8-amino-1-(4-(4-cyanopyridin-2-ylcarbamoyl)phenyl)imidazo [1,5-a]pyrazin-3-yl)-N-ethylpiperidine-1-carboxamide] | < 10 nM | –
19 | Nc1nccn2c([C@@H]3CCC[C@H](N)C3)nc(-c3ccc(C(=O)Nc4cc(C(F)(F)F)ccn4)cc3)c12 (relative stereo) [Example 157, 4-(8-amino-3-((cis)-3-aminocyclohexyl)imidazo[1,5-a]pyrazin-1-yl)-N-(4-(trifluoromethyl)pyridin-2-yl)benzamide] | – | 10 to 100 nM
20 | COCCOCCOCCOCCC(=O)N1CCC[C@@H](n2nc(-c3ccc(C(=O)Nc4cc(C(F)(F)F)ccn4)cc3)c3c(N)ncnc32)C1 [Example 264, (R)-4-(1-(1-2,5,8,11-tetraoxatetradecanepiperidin-3-yl)-4-amino-1H-pyrazolo[3,4-d]pyrimidin-3-yl)-N-(4-(trifluoromethyl)pyridin-2-yl)benzamide] | < 10 nM | –
21 | Nc1ncnc2c1c(-c1ccc(C(=O)Nc3cc(C(F)(F)F)ccn3)cc1)nn2[C@@H]1CCCN(C(=O)[C@H]2CCCO2)C1 [Example 262, 4-(4-amino-1-((R)-1-((R)-tetrahydrofuran-2-carbonyl)piperidin-3-yl)-1H-pyrazolo[3,4-d]pyrimidin-3-yl)-N-(4-(trifluoromethyl)pyridin-2-yl)benzamide] | – | < 10 nM
22 | CC(C)C(=O)N1CCC2(CC1)CC2c1nc(-c2ccc(C(=O)Nc3ccccn3)cc2)c2c(N)nccn12 (stereo not shown) [Example 150, 4-(8-amino-3-(6-isobutyryl-6-azaspiro[2.5]octan-1-yl)imidazo[1,5-a]pyrazin-1-yl)-N-(pyridin-2-yl) benzamidee] | – | 100 to 1000 nM
23 | Nc1nccn2c(C3CCCC3)nc(-c3ccc(C(=O)Nc4cc(C(F)(F)F)ccn4)cc3)c12 [Example 43, 4-(8-amino-3-cyclopentylimidazo[1,5-a]pyrazin-1-yl)-N-(4-(trifluoromethyl)pyridin-2-yl)benzamide, TFA salt] | < 10 nM | –
24 | CCN(CC)C(=O)C1CCCN(c2nc(-c3ccc(C(=O)Nc4cc(C5CC5)ccn4)cc3)c3c(N)nccn23)C1 (stereo not shown) [Example 246, 1-(8-amino-1-(4-(4-cyclopropylpyridin-2-ylcarbamoyl)phenyl)imidazo[1,5-a]pyrazin-3-yl)-N,N-diethylpiperidine-3-carboxamide, TFA salt] | < 10 nM | –
25 | CONC(=O)C1CCCN(c2nc(-c3ccc(C(=O)Nc4cc(C5CC5)ccn4)cc3)c3c(N)nccn23)C1 (stereo not shown) [Example 244, 1-(8-amino-1-(4-(4-cyclopropylpyridin-2-ylcarbamoyl)phenyl)imidazo[1,5-a]pyrazin-3-yl)-N-methoxypiperidine-3-carboxamide, TFA salt] | < 10 nM | –
26 | Nc1nccn2c(N3CCOCC3)nc(-c3ccc(C(=O)Nc4cc(C(F)(F)F)ccn4)cc3)c12 [Example 211, 4-(8-amino-3-morpholinoimidazo[1,5-a]pyrazin-1-yl)-N-(4-(trifluoromethyl)pyridin-2-yl)benzamide] | < 10 nM | –
27 | CCc1ccnc(NC(=O)c2ccc(-c3nc([C@H]4CC[C@H](O)CC4)n4ccnc(N)c34)cc2)c1 [Example 19, 4-(8-amino-3-((trans)-4-hydroxycyclohexyl)imidazo[1,5-a]pyrazin-1-yl)-N-(4-ethylpyridin-2-yl)benzamide] | < 10 nM | –
28 | CCC(=O)N1C[C@H](c2nc(-c3ccc(C(=O)Nc4ccccn4)cc3)c3c(N)nccn23)CC[C@@H]1C (relative stereo) [Example 207, 4-(8-amino-3-((cis)-6-methyl-1-propionylpiperidin-3-yl)imidazo[1,5-a]pyrazin-1-yl)-N-(pyridin-2-yl)benzamide, TFA salt] | < 10 nM | –
